This note sets out measurements from BindingDB's records for patent US20250282782 (Genzyme, 2025).

In the assay the target is T1, Tyrosine-protein phosphatase non-receptor type 11 (Homo sapiens, UniProt Q06124).
T1 sequence (Q06124 whole entry): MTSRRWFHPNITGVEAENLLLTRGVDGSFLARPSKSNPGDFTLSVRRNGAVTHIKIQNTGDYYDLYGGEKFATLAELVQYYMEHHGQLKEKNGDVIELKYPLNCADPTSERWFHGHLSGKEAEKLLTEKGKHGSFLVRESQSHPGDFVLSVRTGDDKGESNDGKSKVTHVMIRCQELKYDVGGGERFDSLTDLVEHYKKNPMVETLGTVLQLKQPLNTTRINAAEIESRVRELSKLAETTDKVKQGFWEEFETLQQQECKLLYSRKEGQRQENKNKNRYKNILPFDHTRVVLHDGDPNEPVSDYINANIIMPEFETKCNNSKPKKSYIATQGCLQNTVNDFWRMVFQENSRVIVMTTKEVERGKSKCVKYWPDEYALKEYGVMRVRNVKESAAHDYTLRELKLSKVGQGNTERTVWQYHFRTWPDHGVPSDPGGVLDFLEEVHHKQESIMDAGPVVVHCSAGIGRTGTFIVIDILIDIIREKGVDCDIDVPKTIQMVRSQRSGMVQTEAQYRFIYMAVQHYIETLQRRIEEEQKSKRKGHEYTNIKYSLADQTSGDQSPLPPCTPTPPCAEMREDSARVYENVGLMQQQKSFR
Kind of assay: Inhibition of SHP2 Phosphatase Activity Assay. The protocol: Inhibition of SHP2 phosphatase activity was evaluated using human recombinant 6His-Nterm (SEQ ID NO: 1) SHP2 full-length (Thr2-Arg593, R&D system), NsCs bi-phosphorylated activating peptide (NH2-LN(pY)AQLWHA(PEG8)LTI(pY)ATIRRF-Amide.acetate (SEQ ID NO: 2), Thermofischer Scientific) and DiFMUP as surrogate phosphatase substrate (Molecular Probes). All reactions were performed at room temperature in 384-well black polystyrene non-binding plate (Corning) with the assay buffer (50 mM HEPES-NaOH pH 7.2, 100 mM NaCl, 0.5 mM EDTA, 0.001% Brij35 including 0.02% BSA and 1 mM DTT added extemporaneously). SHP2 was pre-incubated at least 10 min with the activating peptide (0.2 nM and 100 nM, respectively). 10 μL of this mixture was added to the assay plate, that already contained 15 nL of the compound (1000-0.05 nM). After 30 min pre-incubation, the enzymatic reaction was initiated by the addition of 5 μL DiFMUP in assay buffer without BSA (20 μM). The reaction was stopped by the addition of 15 μL sodium pervanadate solution (100 μM) after 45 min incubation. The fluorescence signal was measured at excitation and emission wavelengths of 350 nm and 450 nm, respectively, using a Pherastar instrument (BMG-LabTech).
In general, IC50 refers to the point on the concentration scale where inhibition reaches its midpoint. Higher therefore signals lower potency. For `Cc1nc(N2CCC3(CC2)Cc2ncccc2[C@H]3N)c2ccnn2c1-c1cc2c(cc1F)OCCO2` [US20250282782, Compound 58], the IC50 turned out to be 35 nM.

For `Cc1nc(N2CCC3(CC2)Cc2scnc2[C@H]3N)c2ccnn2c1-c1ccccc1F` [US20250282782, Compound 66], the IC50 was 22 nM.

With `Cc1nc(N2CCC3(CC2)Cc2scnc2[C@H]3N)c2ccnn2c1-c1cnn(C)c1C` [US20250282782, Compound 67], the half-maximal inhibitory concentration (IC50) was 115 nM.

`Cc1nc(N2CCC3(CC2)Cc2ncsc2[C@H]3N)c2ccnn2c1-c1cnn(C)c1C` [US20250282782, Compound 72] showed an IC50 of 27 nM.

Turning to `Cc1cc2c(cn1)CC1(CCN(c3nc(C)c(-c4cnn(C)c4C)n4nccc34)CC1)[C@@H]2N` [US20250282782, Compound 113], half-maximal inhibition (IC50) was put at 28 nM.

`Cc1ccc(F)c(-c2c(C)nc(N3CCC4(CC3)Cc3ncccc3[C@H]4N)c3ccnn23)c1` [US20250282782, Compound 205] registered an IC50 of 11 nM.
